Assay results taken from the kinase profiling compilation of Christmann-Franck et al. (2016).

Legend:
Test in all cases: KINOMEscan competition binding
Conditions in all cases: compound 10.0 µM
[1] = target: RAF1 (human) (UniProt P04049)
[2] = target: STK17A (human) (UniProt Q9UEE5)
[3] = target: HIPK1 (human) (UniProt Q86Z02)
[4] = target: ACVR2B (human) (UniProt Q13705)
[5] = tested on: EIF2AK4 KD2 (human), Q9P2K8 [S808G]
[6] = target: RPS6KA1 KD2 (human) (UniProt Q15418)
[7] = target: CLK2 (human) (UniProt P49760)
[8] = target: TYK2 JH2 pseudokinase (human) (UniProt P29597)
[9] = target: AURKC (human) (UniProt Q9UQB9)
[10] = target: CHUK (human) (UniProt O15111)
[11] = target: MAPK10 (human) (UniProt P53779)
[12] = target: TAOK3 (human) (UniProt Q9H2K8)
[13] = target: ACVR1 (human) (UniProt Q04771)
[14] = target: CDK11A (human) (UniProt Q9UQ88)
[15] = target: CAMKK2 (human) (UniProt Q96RR4)
[16] = target: PHKG1 (human) (UniProt Q16816)
[17] = target: CAMKK1 (human) (UniProt Q8N5S9)
[18] = target: JAK2 JH1 catalytic (human) (UniProt O60674)
[19] = target: STK33 (human) (UniProt Q9BYT3)
[20] = target: AAK1 (human) (UniProt Q2M2I8)
[21] = target: RIPK2 (human) (UniProt O43353)
[22] = target: NUAK2 (human) (UniProt Q9H093)
[23] = target: MAP3K7 (human) (UniProt O43318)
[24] = target: CSNK1G3 (human) (UniProt Q9Y6M4)
[25] = tested on: PIK3CA (human), P42336 [E545K]
[26] = target: JAK3 JH1 catalytic (human) (UniProt P52333)
[27] = target: MYO3B (human) (UniProt Q8WXR4)
[28] = target: DCLK1 (human) (UniProt O15075)
[29] = target: CDK2 (human) (UniProt P24941)
[30] = target: MAP3K5 (human) (UniProt Q99683)
[31] = tested on: EGFR (human), P00533 [P753S; 747-752 del]

Chain of STK33 (human) (Q9BYT3 whole entry, looked up): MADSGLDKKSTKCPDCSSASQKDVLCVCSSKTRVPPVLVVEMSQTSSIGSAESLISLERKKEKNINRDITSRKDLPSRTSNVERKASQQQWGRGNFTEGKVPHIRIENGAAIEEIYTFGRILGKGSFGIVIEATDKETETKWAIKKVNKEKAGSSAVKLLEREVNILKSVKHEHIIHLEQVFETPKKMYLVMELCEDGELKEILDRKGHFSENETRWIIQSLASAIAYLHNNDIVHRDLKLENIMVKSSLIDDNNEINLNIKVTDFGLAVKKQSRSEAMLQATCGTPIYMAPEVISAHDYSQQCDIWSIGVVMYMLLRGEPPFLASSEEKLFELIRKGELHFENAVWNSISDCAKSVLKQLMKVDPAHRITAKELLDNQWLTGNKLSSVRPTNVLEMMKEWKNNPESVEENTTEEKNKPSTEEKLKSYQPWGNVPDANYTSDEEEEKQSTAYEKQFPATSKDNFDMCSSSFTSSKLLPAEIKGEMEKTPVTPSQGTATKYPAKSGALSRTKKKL
Chain of TYK2 JH2 pseudokinase (human) (P29597 whole entry, looked up): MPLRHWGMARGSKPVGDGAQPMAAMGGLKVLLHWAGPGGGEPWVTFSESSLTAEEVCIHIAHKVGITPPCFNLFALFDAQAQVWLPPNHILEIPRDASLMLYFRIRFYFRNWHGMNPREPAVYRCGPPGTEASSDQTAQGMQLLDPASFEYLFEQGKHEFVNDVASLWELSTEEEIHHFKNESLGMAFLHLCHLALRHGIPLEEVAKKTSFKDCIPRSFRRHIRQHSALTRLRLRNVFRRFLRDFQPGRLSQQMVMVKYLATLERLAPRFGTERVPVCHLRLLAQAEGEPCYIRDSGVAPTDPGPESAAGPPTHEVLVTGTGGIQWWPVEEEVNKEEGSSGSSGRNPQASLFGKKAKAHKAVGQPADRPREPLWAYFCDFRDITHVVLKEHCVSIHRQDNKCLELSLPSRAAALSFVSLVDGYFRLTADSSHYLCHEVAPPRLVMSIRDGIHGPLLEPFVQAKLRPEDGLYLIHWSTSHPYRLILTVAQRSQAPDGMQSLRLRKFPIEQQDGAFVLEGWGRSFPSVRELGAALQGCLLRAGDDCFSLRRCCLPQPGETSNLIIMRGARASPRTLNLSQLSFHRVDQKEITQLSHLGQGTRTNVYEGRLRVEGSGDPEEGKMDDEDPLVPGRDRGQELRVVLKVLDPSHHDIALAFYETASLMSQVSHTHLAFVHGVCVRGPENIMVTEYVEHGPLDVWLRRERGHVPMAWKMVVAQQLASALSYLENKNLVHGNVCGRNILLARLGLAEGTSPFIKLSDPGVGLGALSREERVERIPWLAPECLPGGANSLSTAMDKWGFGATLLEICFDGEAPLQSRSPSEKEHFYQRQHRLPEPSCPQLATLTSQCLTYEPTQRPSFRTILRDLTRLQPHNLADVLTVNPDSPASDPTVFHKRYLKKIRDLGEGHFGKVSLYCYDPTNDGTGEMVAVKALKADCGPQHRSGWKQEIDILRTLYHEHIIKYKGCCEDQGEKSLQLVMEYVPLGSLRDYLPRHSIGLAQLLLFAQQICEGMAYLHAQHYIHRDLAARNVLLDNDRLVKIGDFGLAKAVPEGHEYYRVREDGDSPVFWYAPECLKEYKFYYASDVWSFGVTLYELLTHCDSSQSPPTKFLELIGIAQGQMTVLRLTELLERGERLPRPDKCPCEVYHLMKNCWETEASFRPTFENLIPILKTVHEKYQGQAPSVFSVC
Chain of ACVR1 (human) (Q04771 whole entry, looked up): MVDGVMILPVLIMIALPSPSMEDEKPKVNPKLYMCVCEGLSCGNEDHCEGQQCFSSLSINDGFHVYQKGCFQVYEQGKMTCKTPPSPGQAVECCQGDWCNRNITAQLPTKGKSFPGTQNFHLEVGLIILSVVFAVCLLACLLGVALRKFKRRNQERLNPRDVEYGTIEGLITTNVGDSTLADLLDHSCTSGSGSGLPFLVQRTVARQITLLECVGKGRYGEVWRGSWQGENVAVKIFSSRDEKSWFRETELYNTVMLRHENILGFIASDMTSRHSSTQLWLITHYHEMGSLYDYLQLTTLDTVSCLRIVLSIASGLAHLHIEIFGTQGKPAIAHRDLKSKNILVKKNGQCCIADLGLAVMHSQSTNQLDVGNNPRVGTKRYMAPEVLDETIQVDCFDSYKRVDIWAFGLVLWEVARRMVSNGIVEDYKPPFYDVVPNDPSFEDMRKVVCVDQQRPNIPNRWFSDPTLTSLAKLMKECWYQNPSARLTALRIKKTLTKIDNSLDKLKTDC
Chain of MAP3K7 (human) (O43318 whole entry, looked up): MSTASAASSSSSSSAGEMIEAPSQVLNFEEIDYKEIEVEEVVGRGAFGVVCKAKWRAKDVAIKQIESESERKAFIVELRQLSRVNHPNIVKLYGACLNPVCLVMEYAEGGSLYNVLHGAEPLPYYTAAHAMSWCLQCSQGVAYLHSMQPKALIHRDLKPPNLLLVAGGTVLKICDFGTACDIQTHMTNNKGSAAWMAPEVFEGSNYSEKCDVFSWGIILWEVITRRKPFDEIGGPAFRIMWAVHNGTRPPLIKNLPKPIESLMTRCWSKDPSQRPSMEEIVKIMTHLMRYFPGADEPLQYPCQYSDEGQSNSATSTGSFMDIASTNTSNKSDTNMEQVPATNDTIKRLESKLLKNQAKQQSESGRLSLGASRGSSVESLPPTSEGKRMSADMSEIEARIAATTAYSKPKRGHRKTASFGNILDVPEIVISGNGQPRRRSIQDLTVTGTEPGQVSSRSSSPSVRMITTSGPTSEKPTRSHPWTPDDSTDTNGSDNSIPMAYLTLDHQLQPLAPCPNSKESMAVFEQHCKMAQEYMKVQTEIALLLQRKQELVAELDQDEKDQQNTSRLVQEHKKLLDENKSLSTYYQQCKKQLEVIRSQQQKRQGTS
Chain of CLK2 (human) (P49760 whole entry, looked up): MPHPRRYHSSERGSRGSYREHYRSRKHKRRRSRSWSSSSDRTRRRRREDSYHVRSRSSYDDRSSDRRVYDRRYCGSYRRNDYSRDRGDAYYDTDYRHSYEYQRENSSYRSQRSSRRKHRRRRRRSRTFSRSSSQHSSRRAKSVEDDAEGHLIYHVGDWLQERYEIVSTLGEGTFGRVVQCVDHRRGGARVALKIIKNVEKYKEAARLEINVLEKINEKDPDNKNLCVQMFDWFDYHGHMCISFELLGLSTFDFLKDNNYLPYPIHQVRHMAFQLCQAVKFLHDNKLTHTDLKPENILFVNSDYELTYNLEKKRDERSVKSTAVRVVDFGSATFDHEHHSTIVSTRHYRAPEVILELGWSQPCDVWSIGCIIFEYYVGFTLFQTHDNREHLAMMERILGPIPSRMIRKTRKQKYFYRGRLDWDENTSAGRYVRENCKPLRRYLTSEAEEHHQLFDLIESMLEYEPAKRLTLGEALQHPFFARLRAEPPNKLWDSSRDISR
Chain of RIPK2 (human) (O43353 whole entry, looked up): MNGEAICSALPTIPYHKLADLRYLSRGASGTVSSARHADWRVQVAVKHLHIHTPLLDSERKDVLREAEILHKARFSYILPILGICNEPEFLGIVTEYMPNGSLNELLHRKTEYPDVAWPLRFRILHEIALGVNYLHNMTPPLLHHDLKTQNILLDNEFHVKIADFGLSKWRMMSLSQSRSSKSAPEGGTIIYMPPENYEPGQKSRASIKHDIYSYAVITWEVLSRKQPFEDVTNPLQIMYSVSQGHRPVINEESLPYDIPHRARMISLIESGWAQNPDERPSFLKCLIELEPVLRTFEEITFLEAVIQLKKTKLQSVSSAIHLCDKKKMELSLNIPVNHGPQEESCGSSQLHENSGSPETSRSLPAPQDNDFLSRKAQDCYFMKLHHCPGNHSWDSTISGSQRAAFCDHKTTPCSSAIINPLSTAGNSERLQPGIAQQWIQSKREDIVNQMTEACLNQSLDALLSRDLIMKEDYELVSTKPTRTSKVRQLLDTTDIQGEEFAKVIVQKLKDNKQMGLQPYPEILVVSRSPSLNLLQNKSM
Chain of AURKC (human) (Q9UQB9 whole entry, looked up): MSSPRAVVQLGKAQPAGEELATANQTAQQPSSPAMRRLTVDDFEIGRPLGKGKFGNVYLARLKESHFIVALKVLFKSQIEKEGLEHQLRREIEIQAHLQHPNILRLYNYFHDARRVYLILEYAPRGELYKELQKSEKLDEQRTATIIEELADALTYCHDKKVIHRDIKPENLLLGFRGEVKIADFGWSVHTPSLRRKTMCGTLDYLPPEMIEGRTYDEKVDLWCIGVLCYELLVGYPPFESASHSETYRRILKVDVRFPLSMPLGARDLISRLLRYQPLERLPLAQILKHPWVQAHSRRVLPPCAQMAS
Chain of CSNK1G3 (human) (Q9Y6M4 whole entry, looked up): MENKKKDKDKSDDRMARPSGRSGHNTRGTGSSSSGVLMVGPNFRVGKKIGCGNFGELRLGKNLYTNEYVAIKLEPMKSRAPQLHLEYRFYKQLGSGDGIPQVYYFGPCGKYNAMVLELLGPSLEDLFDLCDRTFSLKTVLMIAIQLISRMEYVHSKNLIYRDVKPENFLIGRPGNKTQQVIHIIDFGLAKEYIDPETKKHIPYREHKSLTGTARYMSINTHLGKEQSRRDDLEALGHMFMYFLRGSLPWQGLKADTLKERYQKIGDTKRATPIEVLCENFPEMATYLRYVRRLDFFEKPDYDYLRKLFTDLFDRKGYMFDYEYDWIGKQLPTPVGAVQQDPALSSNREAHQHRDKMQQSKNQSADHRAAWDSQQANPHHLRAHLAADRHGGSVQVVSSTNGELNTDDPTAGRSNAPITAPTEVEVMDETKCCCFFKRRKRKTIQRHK
Chain of STK17A (human) (Q9UEE5 whole entry, looked up): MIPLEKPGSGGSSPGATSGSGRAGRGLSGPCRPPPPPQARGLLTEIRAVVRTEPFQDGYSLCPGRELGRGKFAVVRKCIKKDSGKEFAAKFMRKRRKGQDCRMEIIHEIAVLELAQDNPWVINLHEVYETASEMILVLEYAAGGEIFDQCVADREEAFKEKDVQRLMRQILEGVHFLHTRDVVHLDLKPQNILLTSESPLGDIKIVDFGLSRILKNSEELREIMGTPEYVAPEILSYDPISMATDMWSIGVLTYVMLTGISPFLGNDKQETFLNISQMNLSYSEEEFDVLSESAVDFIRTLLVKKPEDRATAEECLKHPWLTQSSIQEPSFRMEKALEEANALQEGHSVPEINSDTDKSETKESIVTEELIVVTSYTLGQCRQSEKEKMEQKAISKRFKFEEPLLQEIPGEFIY

Row | SMILES | kinase still bound, per cent of control [2] | kinase still bound, per cent of control [3] | kinase still bound, per cent of control [4] | kinase still bound, per cent of control [5] | kinase still bound, per cent of control [6] | kinase still bound, per cent of control [7] | kinase still bound, per cent of control [8] | kinase still bound, per cent of control [9] | kinase still bound, per cent of control [10] | kinase still bound, per cent of control [12] | kinase still bound, per cent of control [13] | kinase still bound, per cent of control [15] | kinase still bound, per cent of control [17] | kinase still bound, per cent of control [19] | kinase still bound, per cent of control [20] | kinase still bound, per cent of control [21] | kinase still bound, per cent of control [23] | kinase still bound, per cent of control [24] | kinase still bound, per cent of control [26] | kinase still bound, per cent of control [30] | other results
1 | N=C1NC(=O)/C(=C/c2ccc(-c3csc4ccccc34)o2)S1 | 0.05% | 0.6% | 10% | 33% | 14% | 15% | 8.5% | – | – | – | – | – | – | – | – | – | – | – | – | – | kinase still bound, per cent of control [1]: 33%
2 | N=C1NC(=O)/C(=C/c2ccc(-c3cncc4ccccc34)o2)S1 | 0.05% | – | 7.6% | 0.7% | 11% | 1.6% | – | 0.3% | 1.4% | 26% | 0.5% | 7.4% | 3.4% | 12% | 1.1% | – | – | – | – | – | kinase still bound, per cent of control [11]: 3%; kinase still bound, per cent of control [14]: 0.45%; kinase still bound, per cent of control [16]: 23%; kinase still bound, per cent of control [18]: 29%
3 | N=C1NC(=O)/C(=C/c2c[nH]c(=O)c(-c3ccc(N4CCNCC4)nc3)c2)S1 | 0.35% | 0.15% | – | 1.4% | – | 2.8% | – | – | – | – | 29% | – | – | 7.2% | 12% | 27% | – | – | – | – | kinase still bound, per cent of control [22]: 26%
4 | CS(=O)(=O)Nc1ccc(-c2cncc(/C=C3\SC(=N)NC3=O)c2)cc1 | 0.45% | 19% | 4.2% | – | – | – | – | 16% | 19% | 4.7% | 1.8% | – | – | 18% | 32% | 1.4% | 3.4% | 1% | – | – | kinase still bound, per cent of control [25]: 22%
5 | O=C1NC(=S)S/C1=C\c1ccc(-c2cncc3ccccc23)o1 | 0% | 3.4% | 25% | – | 2.6% | 3.1% | 5% | 5.2% | 8.4% | – | 14% | 14% | 5.6% | – | 4.7% | – | 28% | – | 21% | – | kinase still bound, per cent of control [1]: 25%; kinase still bound, per cent of control [27]: 26%; kinase still bound, per cent of control [11]: 12%; kinase still bound, per cent of control [14]: 2%
6 | CN1C(=O)[C@H]2CCC[C@H]2N(C2CCCC2)c2nc(Nc3ccc(C(N)=O)cc3)ncc21 | 0.05% | – | – | – | 7.6% | 1% | 15% | 2.2% | – | 10% | – | 33% | – | – | – | – | 3.4% | 17% | 32% | – | kinase still bound, per cent of control [28]: 5.8%
7 | N=C1NC(=O)/C(=C/c2ccc(-c3ccc(C(N)=O)cc3O)o2)S1 | 0.3% | 0.35% | 22% | 16% | – | 19% | 0.25% | – | 16% | 13% | – | 33% | 16% | – | 15% | – | – | – | 32% | 31% | kinase still bound, per cent of control [29]: 19%
8 | CS(=O)(=O)Nc1ccc(-c2ncc(/C=C3\SC(=N)NC3=O)s2)cc1 | 2% | – | 16% | – | – | – | – | – | – | – | – | 29% | – | – | 13% | 6.6% | – | 8.3% | – | – | –
9 | CSC1=NC(=O)/C(=C/c2c[nH]c(=O)c(-c3ccc(NS(C)(=O)=O)cc3)c2)S1 | 5% | 2.2% | – | 16% | 32% | 9.5% | – | – | 19% | – | – | 31% | 25% | – | 6.2% | – | 14% | – | – | – | kinase still bound, per cent of control [22]: 32%
10 | N=C1NC(=O)/C(=C/c2ccc(-c3ccccc3O)o2)S1 | 0.4% | 1.4% | 15% | – | – | 0.9% | – | – | 9.5% | 0.05% | – | 18% | 13% | – | 8.2% | – | – | – | 14% | 19% | kinase still bound, per cent of control [29]: 20%; kinase still bound, per cent of control [25]: 21%
11 | N=C1NC(=O)/C(=C/c2ccc(-c3ccc(F)cc3O)o2)S1 | 0.3% | 0.15% | 16% | – | – | 2.8% | 31% | – | 15% | 0.2% | – | 22% | 14% | – | 16% | 34% | – | – | 26% | 14% | kinase still bound, per cent of control [29]: 6.6%; kinase still bound, per cent of control [25]: 24%
12 | Nc1cccc(-c2cc(/C=C3\SC(=O)NC3=O)c[nH]c2=O)c1 | 0.3% | 0.2% | 10% | 0.6% | – | 0% | – | 30% | 30% | 24% | – | 5.8% | 3.6% | 19% | 1.8% | – | – | 13% | 6.8% | – | kinase still bound, per cent of control [31]: 16%; kinase still bound, per cent of control [18]: 6.6%
13 | CS(=O)(=O)Nc1ccc(-c2cc(/C=C3\SC(=N)NC3=O)c[nH]c2=O)cc1 | 3.4% | 0.5% | 12% | 25% | – | 5.2% | – | – | 15% | – | 27% | 31% | 33% | – | 7.6% | 11% | 18% | – | 29% | 4.6% | –
